These results are taken from patent US20180008587A1, “THIOHYDANTOIN ANDROGEN RECEPTOR ANTAGONISTS FOR THE TREATMENT OF CANCER” (Jaressen Pharmaceutica NV, priority 2016, published 2018).

Substitutions are numbered along the chain they refer to. Where two headings read alike, the source gives them in different places.

Common to all, as to type: cell-based
Assay [1] deals with T1, wild-type Androgen Receptor (AR-wt) (Homo sapiens, UniProt P10275).
T1 construct: expressed in transfected cells; host or cells: LNCaP (LNCaP AR (cs))
T1 sequence (P10275 1-920): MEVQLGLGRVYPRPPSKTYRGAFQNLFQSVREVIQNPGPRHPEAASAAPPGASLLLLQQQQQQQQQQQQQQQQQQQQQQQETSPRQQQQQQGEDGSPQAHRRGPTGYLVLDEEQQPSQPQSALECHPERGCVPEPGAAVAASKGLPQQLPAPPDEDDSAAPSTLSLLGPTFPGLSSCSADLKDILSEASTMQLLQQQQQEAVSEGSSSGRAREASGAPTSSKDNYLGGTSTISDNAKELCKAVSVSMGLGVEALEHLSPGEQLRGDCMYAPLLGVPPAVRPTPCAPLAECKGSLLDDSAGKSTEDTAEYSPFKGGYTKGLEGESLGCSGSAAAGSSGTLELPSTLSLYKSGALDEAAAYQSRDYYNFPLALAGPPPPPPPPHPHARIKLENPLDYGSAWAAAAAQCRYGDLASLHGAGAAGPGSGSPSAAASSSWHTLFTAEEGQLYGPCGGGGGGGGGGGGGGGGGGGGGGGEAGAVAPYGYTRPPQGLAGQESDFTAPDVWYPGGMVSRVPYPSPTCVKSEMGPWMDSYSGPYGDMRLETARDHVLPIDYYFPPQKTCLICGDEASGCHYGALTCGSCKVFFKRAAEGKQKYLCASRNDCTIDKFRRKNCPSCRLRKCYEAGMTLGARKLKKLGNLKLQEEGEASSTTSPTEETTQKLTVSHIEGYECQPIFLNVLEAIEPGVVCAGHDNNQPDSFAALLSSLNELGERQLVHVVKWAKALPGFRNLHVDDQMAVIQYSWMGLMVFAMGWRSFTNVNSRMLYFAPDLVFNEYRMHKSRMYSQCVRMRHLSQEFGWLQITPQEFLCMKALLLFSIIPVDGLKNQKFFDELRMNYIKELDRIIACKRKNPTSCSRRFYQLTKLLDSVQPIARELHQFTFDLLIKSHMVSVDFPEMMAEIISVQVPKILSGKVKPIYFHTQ
The assay is described as follows: LNCaP-AR-wt AG reporter assay (ARE firefly luciferase, agonist mode). Particulars: for Emax: read-out: LNCaP-AR-wt AG MAX % Stim. In short, it runs like this:
(§1)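 Read-out is luciferase luminescence taken 1 h after Steady-Glo addition, following 20-24 h compound exposure at 37 °C in LNCaP pools stably carrying wild-type or F876L AR. Cells were grown in charcoal-stripped serum. Antagonist wells received agonist at 400 pM (WT) or 600 pM (F876L).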
On the technique in general: Reporter assays use an easily measured gene product as a stand-in for the process of interest.

The target of assay [2] is T2, F876L mutant Androgen Receptor (AR-F876L) (Homo sapiens, UniProt P10275, F877L).
T2 construct: expressed in transfected cells; host or cells: LNCaP (LNCaP F876L)
T2 sequence (P10275 1-920 F877L): T1 sequence (P10275 1-920) with F877L
As to the kind of experiment: LNCaP-AR-F876L AG reporter assay (ARE firefly luciferase, agonist mode). Particulars: for Emax: read-out: LNCaP-AR-F876L AG MAX % Stim. In short, it runs like this: as §1

In assay [3] the target is T1, wild-type Androgen Receptor (AR-wt). The assay is described as follows: LNCaP-AR-wt ANT reporter assay (ARE firefly luciferase, antagonist mode). Particulars: for IC50: antagonist mode, 400 pM R-1881 challenge, −Log10(IC50 [Molar]), read-out: LNCaP-AR-wt ANT pIC50 (converted); for Emax: read-out: LNCaP-AR-wt ANT MAX % Inh. In short, it runs like this:
as §1

For assay [4], the target named is T2, F876L mutant Androgen Receptor (AR-F876L). The assay is described as follows: LNCaP-AR-F876L ANT reporter assay (ARE firefly luciferase, antagonist mode). Particulars: for Emax: read-out: LNCaP-AR-F876L ANT MAX % Inh; for IC50: read-out: LNCaP-AR-F876L ANT pIC50 (converted). In a few lines: as §1
Setting [5] is: agonist mode, −Log10(EC50 [Molar]), read-out: LNCaP-AR-wt AG pEC50 (converted).
Setting [6] is: agonist mode, −Log10(EC50 [Molar]), read-out: LNCaP-AR-F876L AG pEC50 (converted).
The mark [7] stands for this setting: maximum % inhibition of R1881 control response over tested concentration range.
Where [8] appears, read: maximum % stimulation (agonist response) over tested concentration range.

Take `CC(C)CCNC(=O)c1ccc(N2C(=S)N(c3cnc(C#N)c(C(F)(F)F)c3)C(=O)C23CCC3)cc1F` [Cpd 27, 4-[6-[6-cyano-5-(trifluoromethyl)-3-pyridyl]-5-oxo-7-thioxo-6,8-diazaspiro[3.4]octan-8-yl]-2-fluoro-N-isopentyl-benzamide]: the EC50 in assay [1] and in assay [2] was above 15.1 µM in each case. Besides, the Emax was found to be 0.4% in assay [1], 0.2% in assay [2], 96.8% in assay [3] and 98.8% in assay [4]. The results for the IC50 in assay [3] and in assay [4] were 912 nM and 631 nM, respectively.
For the molecule `CN1CCC(Oc2ccc(N3C(=S)N(c4cnc(C#N)c(C(F)(F)F)c4)C(=O)C34CCC4)cc2F)CC1` [Cpd 28, 5-[8-[3-fluoro-4-[(1-methyl-4-piperidyl)oxy]phenyl]-5-oxo-7-thioxo-6,8-diazaspiro[3.4]octan-6-yl]-3-(trifluoromethyl)pyridine-2-carbonitrile], the EC50 in assay [1] and in assay [2] was above 15.1 µM each time. For the same molecule, the Emax was -0.1% in assay [1], 0% in assay [2], 99.6% in assay [3] and 100% in assay [4]. The IC50 is 501 nM in assay [3] and 204 nM in assay [4].
Regarding `Cc1ccc(N2C(=S)N(c3cnc(C#N)c(C)c3)C(=O)C23CCC3)cc1` [Cpd 29, 3-methyl-5-[5-oxo-8-(p-tolyl)-7-thioxo-6,8-diazaspiro[3.4]octan-6-yl]pyridine-2-carbonitrile], the EC50 in assay [1] (setting [5]) and in assay [2] (setting [6]) was above 15.1 µM throughout. Also, the Emax came to 0.7% in assay [1], 0.3% in assay [2], 102% in assay [3] (setting [7]) and 101% in assay [4] (setting [7]). Also, the IC50 in assay [3] is 389 nM; in assay [4], 100 nM.
With `CN1CCN(Cc2ccc(N3C(=S)N(c4cnc(C#N)c(C(F)(F)F)c4)C(=O)C34CCC4)cc2)CC1` [Cpd 30, 5-[8-[4-[(4-methylpiperazin-1-yl)methyl]phenyl]-5-oxo-7-thioxo-6,8-diazaspiro[3.4]octan-6-yl]-3-(trifluoromethyl)pyridine-2-carbonitrile], the EC50 in assay [1] (setting [5]) and in assay [2] (setting [6]) was above 15.1 µM each time. Besides, the Emax was determined as 0.1% in assay [1] (setting [8]), 0.1% in assay [2] (setting [8]), 100% in assay [3] (setting [7]) and 98.8% in assay [4] (setting [7]). In addition, the IC50 in assay [3] was 331 nM; in assay [4] it was 162 nM.
Take `N#Cc1ncc(N2C(=O)C3(CCC3)N(c3ccc(C(=O)NCc4ccccc4Cl)c(F)c3)C2=S)cc1C(F)(F)F` [Cpd 31, N-[(2-chlorophenyl)methyl]-4-[6-[6-cyano-5-(trifluoromethyl)-3-pyridyl]-5-oxo-7-thioxo-6,8-diazaspiro[3.4]octan-8-yl]-2-fluoro-benzamide]: the EC50 in assay [1] and in assay [2] was above 15.1 µM throughout. Further, the Emax in assay [1] turned out to be 0.2%; in assay [2] it was 0.3%; in assay [3] it was 98.6%; in assay [4], 91%. Further, the IC50 in assay [3] and in assay [4] was 2240 nM in each case.
In the case of `Cc1cc(N2C(=O)C3(CCC3)N(c3ccc(OCCc4ccccn4)c(F)c3)C2=S)cnc1C#N` [Cpd 32, 5-[8-[3-fluoro-4-[2-(2-pyridyl)ethoxy]phenyl]-5-oxo-7-thioxo-6,8-diazaspiro[3.4]octan-6-yl]-3-methyl-pyridine-2-carbonitrile], the EC50 in assay [1] (setting [5]) and in assay [2] (setting [6]) was above 15.1 µM throughout. The Emax in assay [1] (setting [8]) stood at 0.7%; in assay [2] (setting [8]) it was 0.1%; in assay [3] (setting [7]), 102%; in assay [4] (setting [7]) it was 101%. For the same molecule, the IC50 in assay [3] is 490 nM; in assay [4], 282 nM.
